The compounds below were run on p27 and p21 protein expression (assay: Immunoblotting of SCF substrates in prostate cancer cells). Details: LNCaP prostate cancer cells.
Type: cell-based
Text: Cells were lysed with RIPA buffer in the presence of protease inhibitor cocktail (Roche). The following antibodies were used for immunoblotting analysis: anti-Skp2 (Invitrogen), anti-Xpress (Invitrogen), anti-p27 (BD transduction laboratories), anti-p21 (Santa Cruz), anti-β-actin (Sigma), anti-α-tubulin (Sigma), anti-phospho-Akt (Thr308) (Cell Signaling), anti-phospho-Akt (Ser473) (Cell Signaling), and anti-HA (Convance). For immunohistochemistry, tissues were fixed in 10% formalin and embedded in paraffin in accordance with standard procedures. Sections were stained with anti-Skp2 (Invitrogen), anti-p27 (Epitomics), anti-phosphoAkt (SerS473) (Cell signaling), anti-Glut1 (Abcam), and anti-Ki67 (Abcam). TUNEL staining was performed by using in situ cell death detection kit-POD (Roche).

| Compound | heat shock protein 27 (Hsp27) expression |
| --- | --- |
| NS(=O)(=O)OC[C@@H]1C[C@@H](n2ccc3c(N[C@H]4CCc5ccccc54)ncnc32)C[C@@H]1O [MLN4924, reference compound] | induced expression |

Same assay, conditions: Skp2, Fbw7 and β-TrCP substrates, FIGS. 3E and 11A

| Compound | stabilization/induction of SCF substrates |
| --- | --- |
| NS(=O)(=O)OC[C@@H]1C[C@@H](n2ccc3c(N[C@H]4CCc5ccccc54)ncnc32)C[C@@H]1O [MLN4924, reference compound] | globally induced |

Each compound was assayed against T1, FBW7 (Homo sapiens, UniProt Q969H0) (assay: In vivo ubiquitination assay, FBW7 substrates). Details: in the presence of proteasome inhibitor.
T1 construct: expressed in transfected cells; host or cells: 293T
Type: cell-based
Description: In vivo and in vitro ubiquitination assays were performed as described with modification (Lin et al., 2009; Yang et al., 2009). For in vitro ubiquitination assay, recombinant GST-Akt proteins were expressed, purified and eluted from the bacterial lysates of BL21 competent cells. Flag-Skp2 SCF complex were expressed in 293T cells, immunoprecipitated by anti-Flag antibody, and eluted from Protein A/G beads using Flag peptides according to manufacturers' standard procedures. Purified GST-Akt and Flag-SCF proteins were incubated for 3 h at 37° C. in the absence and presence of Skp2 inhibitor. After incubation, protein mixtures were diluted in E1A Buffer and the supernatant fluid was precleared with Protein A/G beads for 1 h, and immunoprecipitated overnight with anti-Flag antibody, after which Protein A/G beads were added for an additional 1 h. Beads were washed 4 times with E1A Buffer. Proteins were eluted in SDS-sample buffer and subjected to immunoblotting analysis. For in vivo ubiquitination assay, 293T cells were transfected with the indicated plasmids and cultured in the absence or presence of Skp2 inhibitor for 48 h. 6 h before harvest, cells were cultured in the presence of MG132. After cell harvest, cells were lysed by the denatured buffer (6M guanidine-HCl, 0.1M Na2HPO4/NaH2PO4, 10 mM imidazole). […]

T1 sequence (Q969H0 whole entry, species assumed): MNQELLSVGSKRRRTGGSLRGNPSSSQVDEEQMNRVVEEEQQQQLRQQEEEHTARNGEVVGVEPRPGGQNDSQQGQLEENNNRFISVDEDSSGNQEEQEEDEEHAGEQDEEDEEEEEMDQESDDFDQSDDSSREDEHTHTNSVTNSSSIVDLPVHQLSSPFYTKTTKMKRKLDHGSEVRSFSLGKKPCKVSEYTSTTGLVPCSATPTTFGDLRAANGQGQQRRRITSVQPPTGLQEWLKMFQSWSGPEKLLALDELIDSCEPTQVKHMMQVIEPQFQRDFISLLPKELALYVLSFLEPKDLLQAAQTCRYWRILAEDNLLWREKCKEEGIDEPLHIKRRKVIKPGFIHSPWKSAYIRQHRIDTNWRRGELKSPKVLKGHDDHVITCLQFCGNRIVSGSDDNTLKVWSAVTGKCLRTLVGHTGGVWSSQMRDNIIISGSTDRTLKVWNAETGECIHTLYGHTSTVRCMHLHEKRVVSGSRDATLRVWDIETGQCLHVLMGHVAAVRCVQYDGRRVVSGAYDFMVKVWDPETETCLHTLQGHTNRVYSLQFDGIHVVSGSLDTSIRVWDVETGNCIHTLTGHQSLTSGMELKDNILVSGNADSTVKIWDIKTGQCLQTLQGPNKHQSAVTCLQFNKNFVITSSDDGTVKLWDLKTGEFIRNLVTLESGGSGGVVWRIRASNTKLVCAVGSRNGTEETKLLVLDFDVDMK

| FBW7-mediated ubiquitination (c-Jun, MCL-1) | Compound |
| --- | --- |
| profoundly attenuated | NS(=O)(=O)OC[C@@H]1C[C@@H](n2ccc3c(N[C@H]4CCc5ccccc54)ncnc32)C[C@@H]1O [MLN4924, reference compound] |

What follows are compounds tested against T2, Skp1/Skp2 binding interaction (Homo sapiens, UniProt Q13309) (assay: In vitro Skp2-Skp1 binding assay (GST pull-down)). Details: amount of intact Skp1/Skp2 remaining after treatment, quantified on western blot/images.
T2 construct: made in house; host or cells: GST-Skp1: E. coli BL21; Skp2: in vitro translation
Description: For in vitro GST-Skp1 and Skp2 interaction, GST-Skp1 proteins purified from the bacterial lysates of BL21 competent cells transformed with pGEX-4X1-Skp1 using the Glutathione-Agarose beads according to the manufacturer's standard procedures. The GST-Skp1 proteins bound to glutathione Sepharose beads (Amersham Biosciences) were then incubated with the in vitro translated [35^S]-Skp2 for 2 hours at 4° C. in the interaction buffer with or without compound #25 (20 mM HEPES, PH 7.9, 150 mM KCl. 5 mM EDTA, 0.5 mM DTT, 0.1% (v/v) Nonidet p-40, 0.1% (w/v) BSA, 1 mM PMSF, and 10% Glycerol), washed by the NETN buffer (20 mM Tris, pH 8.0, 100 mM NaCl, 6 mM MgCl2, 1 mM EDTA, 0.5% Nonidet P-40, 1 mM DTT, 8% glycerol, 1 mM PMSF) 4 times, and subjected to 8% SDS-PAGE, followed by autoradiography.
Below are the original lead compound and 11 similar compounds that were tested for their ability to block the Skp1/Skp2 binding interaction in an in vitro assay. The quantification was made on western blot/images, and the percentages represent the amount of intact Skp1/Skp2 remaining after treatment. In vitro binding assays were performed. For in vitro GST-Skp1 and Skp2 interaction, GST-Skp1 proteins purified from the bacterial lysates of BL21 competent cells transformed with pGEX-4X1-Skp1 using the Glutathione-Agarose beads were performed according to the manufacturer's standard procedures. The GST-Skp1 proteins bound to glutathione Sepharose beads (Amersham Biosciences) were then incubated with the in vitro translated [35^S]-Skp2 for 2 hours at 4° C. in the interaction buffer with or without lead compound and 11 similar compounds (20 mM HEPES, PH 7.9, 150 mM KCl. 5 mM EDTA, 0.5 mM DTT, 0.1% (v/v) Nonidet p-40, 0.1% (w/v) BSA, 1 mM PMSF, and 10% Glycerol), washed by the NETN buffer (20 mM Tris, pH 8.0, 100 mM NaCl, 6 mM MgCl2, 1 mM EDTA, 0.5% Nonidet P-40, 1 mM DTT, 8% glycerol, 1 mM PMSF) 4 times, and subjected to 8% SDS-PAGE, followed by autoradiography. The data presented in Table 1 below was obtained using the Skp1/Skp2 binding affinity assay. The quantification percentage results listed below are based on the western blot results.

T2 sequence (Q13309 whole entry): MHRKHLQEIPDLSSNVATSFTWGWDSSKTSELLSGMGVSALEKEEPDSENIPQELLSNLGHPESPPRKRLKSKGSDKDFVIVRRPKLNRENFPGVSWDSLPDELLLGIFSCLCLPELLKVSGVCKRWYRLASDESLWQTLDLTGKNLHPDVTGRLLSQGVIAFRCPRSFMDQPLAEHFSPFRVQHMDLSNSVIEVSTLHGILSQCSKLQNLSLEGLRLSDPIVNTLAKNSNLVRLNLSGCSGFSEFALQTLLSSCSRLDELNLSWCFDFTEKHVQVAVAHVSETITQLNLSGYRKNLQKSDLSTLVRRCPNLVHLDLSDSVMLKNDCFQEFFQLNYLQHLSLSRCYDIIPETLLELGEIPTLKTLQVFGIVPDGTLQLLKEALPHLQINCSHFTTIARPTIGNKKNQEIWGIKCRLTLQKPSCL

| Normalized w/ vehicle treatment | Compound |
| --- | --- |
| 8% | CCc1cc2c(=O)c(-c3nc4ccccc4s3)coc2c(CN(C)C)c1O [compound 653] |
| 75% | O=c1c(-c2nc3ccccc3s2)coc2cc(O)ccc12 [compound 684] |
| 80% | O=c1oc2c(CN(CCO)CCO)c(O)ccc2cc1-c1nc2ccccc2s1 [compound 719] |
| 10% | CN(C)Cc1c(O)ccc2cc(-c3nc4ccccc4o3)c(=O)oc12 [compound 820] |
| 8% | COc1ccccc1C(=O)Oc1ccc2c(=O)c(-c3nc4ccccc4s3)coc2c1 [compound 837] |

More lines, now with the values behind:

| Compound | Normalized w/ vehicle treatment |
| --- | --- |
| Cn1c(-c2cc3ccc(O)c(CN4CCCC4)c3oc2=O)nc2ccccc21 [compound 343] | 35% |
| CCc1cc2c(=O)c(-c3nc4ccccc4s3)coc2c(CN2CCOCC2)c1O [compound 354] | 10% |
| CCc1cc2c(=O)c(-c3nc4ccccc4s3)coc2cc1O [compound 378] | 100% (no effect) |
| Cn1c(-c2cc3ccc(O)c(CN4CCCCC4)c3oc2=O)nc2ccccc21 [compound 435] | 40% |
| Cn1c(-c2cc3ccc(O)c(CN4CCCCCC4)c3oc2=O)nc2ccccc21 [compound 580] | 8% |
| Nc1oc2cc(O)ccc2c(=O)c1-c1nc2ccccc2s1 [compound 649] | 8% |

— patent US9624211B2, “Anti-cancer compounds” (Board of Regents, The University of Texas System, priority 2013, dated 2017)
